From paper PMC5218480 (PLoS ONE, 2017)

System: MV-4-11 cells
Experiment: Gene expression microarray analysis (Affymetrix PrimeView) and GSEA
Assay type: cell-based, human
Parameters: RFU PODN (11730768_x_at) / Fold change /veh PODN (11730768_x_at) / RFU LINC00158 (11744669_a_at) / Fold change /veh LINC00158 (11744669_a_at) / RFU DUSP10 (11751237_a_at) / Fold change /veh DUSP10 (11751237_a_at) / RFU ID3 (11757404_x_at) / Fold change /veh ID3 (11757404_x_at) / RFU PLEKHG5 (11737974_s_at) / Fold change /veh PLEKHG5 (11737974_s_at) / RFU LRRC4B (11730491_at) / Fold change /veh LRRC4B (11730491_at) / RFU GIMAP4 (11747438_a_at) / Fold change /veh GIMAP4 (11747438_a_at) / RFU KRT8 (11758183_x_at) / Fold change /veh KRT8 (11758183_x_at) / RFU CNN1 (11734310_a_at) / Fold change /veh CNN1 (11734310_a_at) / RFU VPS37D (11726825_at) / Fold change /veh VPS37D (11726825_at) / RFU C10orf10 (11716522_x_at) / Fold change /veh C10orf10 (11716522_x_at) / RFU KIR2DL2 /// KIR2DL4 /// KIR2DL5A /// KIR2DL5B /// KIR2DS1 /// KIR2DS2 /// KIR2DS3 /// KIR2DS4 /// KIR3DL3 /// KIR3DL3 /// KIR3DS1 (11738374_at) / Fold change /veh KIR2DL2 /// KIR2DL4 /// KIR2DL5A /// KIR2DL5B /// KIR2DS1 /// KIR2DS2 /// KIR2DS3 /// KIR2DS4 /// KIR3DL3 /// KIR3DL3 /// KIR3DS1 (11738374_at) / RFU C1QL1 (11718748_at) / Fold change /veh C1QL1 (11718748_at) / RFU TMPRSS4 (11747572_a_at) / Fold change /veh TMPRSS4 (11747572_a_at) / RFU HAMP (11756126_x_at) / Fold change /veh HAMP (11756126_x_at) / RFU RNFT2 (11725882_a_at) / Fold change /veh RNFT2 (11725882_a_at) / RFU NR4A2 (11747474_a_at) / Fold change /veh NR4A2 (11747474_a_at) / RFU ABCC12 (11746883_a_at) / Fold change /veh ABCC12 (11746883_a_at) / RFU TMEM136 (11760407_x_at) / Fold change /veh TMEM136 (11760407_x_at) / RFU CLDN22 /// WWC2 (11732394_at) / Fold change /veh CLDN22 /// WWC2 (11732394_at) / RFU HLA-DPB1 (11760878_x_at) / Fold change /veh HLA-DPB1 (11760878_x_at) / RFU SPINT1 (11716480_a_at) / Fold change /veh SPINT1 (11716480_a_at) / RFU GAP43 (11754022_s_at) / Fold change /veh GAP43 (11754022_s_at) / RFU A4GNT (11735810_at) / Fold change /veh A4GNT (11735810_at) / RFU PRB3 (11715151_x_at) / Fold change /veh PRB3 (11715151_x_at) / RFU TUBB4B (11761932_at) / Fold change /veh TUBB4B (11761932_at) / RFU CAPN14 (11732068_a_at) / Fold change /veh CAPN14 (11732068_a_at) / RFU TMCC2 (11721928_a_at) / Fold change /veh TMCC2 (11721928_a_at) / RFU IRGQ (11745062_a_at) / Fold change /veh IRGQ (11745062_a_at) / RFU FAM174B (11720279_a_at) / Fold change /veh FAM174B (11720279_a_at) / RFU TMPRSS4 (11748680_a_at) / Fold change /veh TMPRSS4 (11748680_a_at) / RFU FAM212B (11763350_a_at) / Fold change /veh FAM212B (11763350_a_at) / RFU PLEKHG5 (11743358_a_at) / Fold change /veh PLEKHG5 (11743358_a_at) / RFU ZSCAN30 (11745921_a_at) / Fold change /veh ZSCAN30 (11745921_a_at) / RFU CMKLR1 (11741424_a_at) / Fold change /veh CMKLR1 (11741424_a_at) / RFU LOC101060620 /// MAPK8IP1 (11723275_at) / Fold change /veh LOC101060620 /// MAPK8IP1 (11723275_at) / RFU SPTSSB (11747773_x_at) / Fold change /veh SPTSSB (11747773_x_at) / RFU PRSS12 (11739890_at) / Fold change /veh PRSS12 (11739890_at) / RFU BIN1 (11741810_x_at) / Fold change /veh BIN1 (11741810_x_at) / RFU WNT11 (11732464_a_at) / Fold change /veh WNT11 (11732464_a_at) / RFU C10orf10 (11716521_a_at) / Fold change /veh C10orf10 (11716521_a_at) / RFU C5orf56 (11738089_at) / Fold change /veh C5orf56 (11738089_at) / RFU CYB561 (11721691_x_at) / Fold change /veh CYB561 (11721691_x_at) / RFU ANKRD19P (11752326_a_at) / Fold change /veh ANKRD19P (11752326_a_at) / RFU OR2T12 /// OR2T33 /// OR2T8 (11738714_s_at) / Fold change /veh OR2T12 /// OR2T33 /// OR2T8 (11738714_s_at) / RFU VCAN (11748164_a_at) / Fold change /veh VCAN (11748164_a_at) / RFU JSRP1 (11732532_at) / Fold change /veh JSRP1 (11732532_at) / RFU KRTAP10-11 (11738290_x_at) / Fold change /veh KRTAP10-11 (11738290_x_at) / RFU MYO3A (11730013_a_at) / Fold change /veh MYO3A (11730013_a_at) / RFU EBF3 (11725865_a_at) / Fold change /veh EBF3 (11725865_a_at) / RFU CAMK2N1 (11719241_x_at) / Fold change /veh CAMK2N1 (11719241_x_at) / RFU C5orf56 (11738088_a_at) / Fold change /veh C5orf56 (11738088_a_at) / RFU OLFML3 (11715873_a_at) / Fold change /veh OLFML3 (11715873_a_at) / RFU LOC100653217 /// NTM (11731650_a_at) / Fold change /veh LOC100653217 /// NTM (11731650_a_at) / RFU MAPK11 (11762145_a_at) / Fold change /veh MAPK11 (11762145_a_at) / RFU FIZ1 (11724087_x_at) / Fold change /veh FIZ1 (11724087_x_at) / RFU OASL (11726364_x_at) / Fold change /veh OASL (11726364_x_at) / RFU SOX15 (11748057_x_at) / Fold change /veh SOX15 (11748057_x_at) / RFU CD79A (11719716_a_at) / Fold change /veh CD79A (11719716_a_at) / RFU HIST1H1D (11736915_at) / Fold change /veh HIST1H1D (11736915_at) / RFU CASKIN2 (11723855_a_at) / Fold change /veh CASKIN2 (11723855_a_at) / RFU LOC730098 (11760151_x_at) / Fold change /veh LOC730098 (11760151_x_at) / RFU OR4N2 (11742367_at) / Fold change /veh OR4N2 (11742367_at) / RFU PRRT2 (11749266_a_at) / Fold change /veh PRRT2 (11749266_a_at) / RFU SNX32 (11753110_a_at) / Fold change /veh SNX32 (11753110_a_at) / RFU CDHR5 (11726645_a_at) / Fold change /veh CDHR5 (11726645_a_at) / RFU RCAN1 (11760418_a_at) / Fold change /veh RCAN1 (11760418_a_at) / RFU FAM167A (11723789_a_at) / Fold change /veh FAM167A (11723789_a_at) / RFU FAM26E (11764081_at) / Fold change /veh FAM26E (11764081_at) / RFU ISYNA1 (11749810_s_at) / Fold change /veh ISYNA1 (11749810_s_at) / RFU ACY1 (11761880_at) / Fold change /veh ACY1 (11761880_at) / RFU 11764098_at / Fold change /veh 11764098_at / RFU SAMD14 (11745864_x_at) / Fold change /veh SAMD14 (11745864_x_at) / RFU NPB (11741838_a_at) / Fold change /veh NPB (11741838_a_at) / RFU TMPRSS6 (11731388_a_at) / Fold change /veh TMPRSS6 (11731388_a_at) / RFU KRTAP10-2 (11738614_at) / Fold change /veh KRTAP10-2 (11738614_at) / RFU ARHGAP8 /// PRR5-ARHGAP8 (11727945_x_at) / Fold change /veh ARHGAP8 /// PRR5-ARHGAP8 (11727945_x_at) / RFU KRTAP5-7 /// NADSYN1 (11734609_at) / Fold change /veh KRTAP5-7 /// NADSYN1 (11734609_at) / RFU RASL12 (11751679_a_at) / Fold change /veh RASL12 (11751679_a_at) / RFU CDKN2B (11736163_a_at) / Fold change /veh CDKN2B (11736163_a_at) / RFU PRF1 (11729649_at) / Fold change /veh PRF1 (11729649_at) / RFU, ZNF638 /// ZNF638-IT1 / Fold change vs veh, ZNF638 /// ZNF638-IT1 / RFU, PANK3 / Fold change vs veh, PANK3 / RFU, SH3YL1 / Fold change vs veh, SH3YL1 / RFU, ZEB2 / Fold change vs veh, ZEB2 / RFU, NRIP1 / Fold change vs veh, NRIP1 / RFU, PTTG1IP / Fold change vs veh, PTTG1IP / RFU, CAPN2 / Fold change vs veh, CAPN2 / RFU, MED14 / Fold change vs veh, MED14 / RFU, SNORA58 / Fold change vs veh, SNORA58 / RFU, C1orf63 / Fold change vs veh, C1orf63 / RFU, LRRFIP1 / Fold change vs veh, LRRFIP1 / RFU, NDUFAF7 / Fold change vs veh, NDUFAF7 / RFU, SLC12A2 / Fold change vs veh, SLC12A2 / RFU, IBTK / Fold change vs veh, IBTK / RFU, ESF1 / Fold change vs veh, ESF1 / Fold change vs veh, TMEM50B / RFU, TAOK1 / Fold change vs veh, TAOK1 / RFU, ACBD3 / Fold change vs veh, ACBD3 / RFU, TMA16 / Fold change vs veh, TMA16 / RFU, RWDD3 / Fold change vs veh, RWDD3 / RFU, BCAT1 / Fold change vs veh, BCAT1 / RFU, EDEM3 / Fold change vs veh, EDEM3 / RFU, TMEM33 / Fold change vs veh, TMEM33 / RFU, WDR75 / Fold change vs veh, WDR75 / RFU, AHCTF1 / Fold change vs veh, AHCTF1 / RFU, TFRC / Fold change vs veh, TFRC / RFU, ZDHHC17 / Fold change vs veh, ZDHHC17 / RFU, NOM1 / Fold change vs veh, NOM1 / RFU, ARL8B / Fold change vs veh, ARL8B / RFU, ZBTB11 / Fold change vs veh, ZBTB11 / RFU, TAMM41 / Fold change vs veh, TAMM41 / RFU, KIAA1704 /// LOC100996395 / Fold change vs veh, KIAA1704 /// LOC100996395 / RFU, ING1 / Fold change vs veh, ING1 / RFU, TRMT61B / Fold change vs veh, TRMT61B / RFU, FUBP3 / Fold change vs veh, FUBP3 / RFU, TP53 / Fold change vs veh, TP53 / RFU, TNKS2 / Fold change vs veh, TNKS2 / RFU, ZFP14 / Fold change vs veh, ZFP14 / RFU, ACTR2 / Fold change vs veh, ACTR2 / RFU, PPP3R1 / Fold change vs veh, PPP3R1 / RFU, PIK3R1 / Fold change vs veh, PIK3R1 / RFU, HNRNPA1 / Fold change vs veh, HNRNPA1 / RFU, RNF170 / Fold change vs veh, RNF170 / RFU, ZNF28 / Fold change vs veh, ZNF28 / RFU, RNGTT / Fold change vs veh, RNGTT / RFU, OGT / Fold change vs veh, OGT / RFU, BRD1 / Fold change vs veh, BRD1 / RFU, MARS / Fold change vs veh, MARS / RFU, ZNF655 / Fold change vs veh, ZNF655 / RFU, FAHD1 / Fold change vs veh, FAHD1 / RFU, BDP1 / Fold change vs veh, BDP1 / RFU, LRRCC1 / Fold change vs veh, LRRCC1 / RFU, ARID1A / Fold change vs veh, ARID1A / RFU, ZNF146 / Fold change vs veh, ZNF146 / RFU, ZNF330 / Fold change vs veh, ZNF330 / RFU, GPN3 / Fold change vs veh, GPN3 / RFU, C9orf123 / Fold change vs veh, C9orf123 / RFU, N4BP2L2 / Fold change vs veh, N4BP2L2 / RFU, ARFIP1 / Fold change vs veh, ARFIP1 / RFU, FAM179B / Fold change vs veh, FAM179B / RFU, BCL10 / Fold change vs veh, BCL10 / RFU, UHRF1BP1L / Fold change vs veh, UHRF1BP1L / RFU, BET1 / Fold change vs veh, BET1 / RFU, CNOT2 / Fold change vs veh, CNOT2 / RFU, ZNF268 / Fold change vs veh, ZNF268 / Fold change vs veh, ZNF507 / RFU, DGCR2 / Fold change vs veh, DGCR2 / RFU, WDSUB1 / Fold change vs veh, WDSUB1 / Fold change vs veh, HSP90B1 /// MIR3652 / RFU, ADSS / Fold change vs veh, ADSS / RFU, GK / Fold change vs veh, GK / RFU, ZNF148 / Fold change vs veh, ZNF148 / RFU, TAF9 / Fold change vs veh, TAF9 / RFU, SLC1A5 / Fold change vs veh, SLC1A5 / RFU, SLMO2 / Fold change vs veh, SLMO2 / RFU, ABCC4 / Fold change vs veh, ABCC4 / RFU, LOC101060439 /// RAP1B / Fold change vs veh, LOC101060439 /// RAP1B / RFU, RFX7 / Fold change vs veh, RFX7 / RFU, GTPBP10 / Fold change vs veh, GTPBP10 / RFU, CNEP1R1 / Fold change vs veh, CNEP1R1 / RFU, BIVM-ERCC5 /// ERCC5 / Fold change vs veh, BIVM-ERCC5 /// ERCC5 / RFU, ILF3 / Fold change vs veh, ILF3 / RFU 11762660_at / Fold change /veh 11762660_at / RFU VCAN (11757783_s_at) / Fold change /veh VCAN (11757783_s_at) / RFU DDX43 (11728927_at) / Fold change /veh DDX43 (11728927_at) / RFU KRT8 (11758188_x_at) / Fold change /veh KRT8 (11758188_x_at) / RFU NKD1 (11759106_at) / Fold change /veh NKD1 (11759106_at) / RFU SRD5A1 (11742802_a_at) / Fold change /veh SRD5A1 (11742802_a_at) / RFU TPSAB1 /// TPSB2 (11721975_s_at) / Fold change /veh TPSAB1 /// TPSB2 (11721975_s_at) / RFU GSTM3 (11746129_a_at) / Fold change /veh GSTM3 (11746129_a_at) / RFU IL23R (11737362_x_at) / Fold change /veh IL23R (11737362_x_at) / RFU TMEM51 (11727254_a_at) / Fold change /veh TMEM51 (11727254_a_at) / RFU PIWIL2 (11732686_x_at) / Fold change /veh PIWIL2 (11732686_x_at) / RFU ORM1 (11744905_x_at) / Fold change /veh ORM1 (11744905_x_at) / RFU CCDC152 (11743942_at) / Fold change /veh CCDC152 (11743942_at) / RFU ECM1 (11717891_a_at) / Fold change /veh ECM1 (11717891_a_at) / RFU IL23R (11748794_a_at) / Fold change /veh IL23R (11748794_a_at) / RFU TNFAIP8L3 (11732012_x_at) / Fold change /veh TNFAIP8L3 (11732012_x_at) / RFU MBOAT4 (11741988_at) / Fold change /veh MBOAT4 (11741988_at) / RFU 11764193_at / Fold change /veh 11764193_at / RFU TMEM53 (11763286_at) / Fold change /veh TMEM53 (11763286_at) / RFU MAGEB2 (11727129_at) / Fold change /veh MAGEB2 (11727129_at) / RFU TMEM200A (11744735_a_at) / Fold change /veh TMEM200A (11744735_a_at) / RFU CCDC152 (11751479_a_at) / Fold change /veh CCDC152 (11751479_a_at) / RFU FAM211A (11726209_a_at) / Fold change /veh FAM211A (11726209_a_at) / RFU RGS16 (11746705_a_at) / Fold change /veh RGS16 (11746705_a_at) / RFU VCAN (11755009_s_at) / Fold change /veh VCAN (11755009_s_at) / RFU RHOB (11743442_s_at) / Fold change /veh RHOB (11743442_s_at) / RFU RGS16 (11720943_a_at) / Fold change /veh RGS16 (11720943_a_at) / RFU RGS16 (11720944_at) / Fold change /veh RGS16 (11720944_at) / RFU, VPS4B / Fold change vs veh, VPS4B / RFU, CREB1 / Fold change vs veh, CREB1 / RFU, DNAJC13 / Fold change vs veh, DNAJC13 / RFU, GNAQ / Fold change vs veh, GNAQ / RFU, CDK5R1 / Fold change vs veh, CDK5R1 / RFU, ZRANB3 / Fold change vs veh, ZRANB3 / RFU, CUL4A / Fold change vs veh, CUL4A / RFU, CCNY / Fold change vs veh, CCNY / RFU, UFL1 / Fold change vs veh, UFL1 / RFU, COG3 / Fold change vs veh, COG3 / RFU, DIAPH2 / Fold change vs veh, DIAPH2 / RFU, SKA2 / Fold change vs veh, SKA2 / RFU, AFF3 / Fold change vs veh, AFF3 / RFU, LMF1 / Fold change vs veh, LMF1 / RFU, IPO11 / Fold change vs veh, IPO11 / RFU, DFFB / Fold change vs veh, DFFB / RFU, FOXP1 / Fold change vs veh, FOXP1 / RFU, CARD8 / Fold change vs veh, CARD8 / RFU, STRN3 / Fold change vs veh, STRN3 / RFU, ADK / Fold change vs veh, ADK / RFU, RASSF2 / Fold change vs veh, RASSF2 / RFU, WIPF1 / Fold change vs veh, WIPF1 / RFU, LARP1B / Fold change vs veh, LARP1B / RFU, RASA1 / Fold change vs veh, RASA1 / RFU, RB1 / Fold change vs veh, RB1 / RFU, PPFIA1 / Fold change vs veh, PPFIA1 / RFU, MAT2A / Fold change vs veh, MAT2A / RFU, CCT5 / Fold change vs veh, CCT5 / RFU, WDR92 / Fold change vs veh, WDR92 / RFU, CUX1 / Fold change vs veh, CUX1 / RFU, TTC7A / Fold change vs veh, TTC7A / RFU, TMEM135 / Fold change vs veh, TMEM135 / RFU, DEPTOR / Fold change vs veh, DEPTOR / RFU, CPM / Fold change vs veh, CPM / RFU, DNAJB6 / Fold change vs veh, DNAJB6 / RFU, CACNA2D3 / Fold change vs veh, CACNA2D3 / RFU, DTX4 / Fold change vs veh, DTX4 / RFU, TFCP2 / Fold change vs veh, TFCP2 / RFU, GMCL1 /// GMCL1P1 / Fold change vs veh, GMCL1 /// GMCL1P1 / RFU, AEBP2 / Fold change vs veh, AEBP2 / RFU, SNHG1 /// SNORD22 /// SNORD25 /// SNORD26 /// SNORD27 /// SNORD28 /// SNORD29 /// SNORD31 / Fold change vs veh, SNHG1 /// SNORD22 /// SNORD25 /// SNORD26 /// SNORD27 /// SNORD28 /// SNORD29 /// SNORD31 / Fold change (Aza/veh), C12orf56 (ProbeSet 11735607_a_at) / Fold change (ACY-1035/veh), C12orf56 (ProbeSet 11735607_a_at) / Fold change (Aza/veh), FGFR1OP (ProbeSet 11751329_s_at) / Fold change (ACY-1035/veh), FGFR1OP (ProbeSet 11751329_s_at) / Fold change (Aza/veh), VPS36 (ProbeSet 11739960_a_at) / Fold change (ACY-1035/veh), VPS36 (ProbeSet 11739960_a_at) / RFU SYPL1 (11715823_x_at) / Fold change /veh SYPL1 (11715823_x_at) / RFU IGFBP7 (11715501_s_at) / Fold change /veh IGFBP7 (11715501_s_at) / RFU REEP3 (11722064_at) / Fold change /veh REEP3 (11722064_at) / RFU IGLL1 (11728026_x_at) / Fold change /veh IGLL1 (11728026_x_at): dose or concentration left out as unconfirmed
Settings: ProbeSet 11749781_s_at; LIST B

## Nc1ncn([C@@H]2O[C@H](CO)[C@@H](O)[C@H]2O)c(=O)n1 [azacitidine]
  Fold change vs veh, BCAT1: 0.85
